Reference: PubChem BioAssay (NCI)
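Following 48 hours of exposure in 96-well plates, responses at five concentrations were used to interpolate endpoints linearly. GI50 = concentration required for 50% inhibition of growth. TGI marks complete inhibition of growth.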

Columns and labels:
Test in all cases: NCI tumour cell line growth inhibition, 48 h
DLD-1 colon = system: DLD-1 colon
HT29 colon = system: HT29 colon
TK-10 renal = system: TK-10 renal
UO-31 renal = system: UO-31 renal
HCC-2998 colon = system: HCC-2998 colon
M14 melanoma = system: M14 melanoma
SK-OV-3 ovarian = system: SK-OV-3 ovarian
OVCAR-8 ovarian = system: OVCAR-8 ovarian
EKVX NSCLC = system: EKVX NSCLC
A549 NSCLC = system: A549 NSCLC
HOP-92 NSCLC = system: HOP-92 NSCLC
NCI-H226 lung = system: NCI-H226 lung
LOX IMVI melanoma = system: LOX IMVI melanoma
OVCAR-5 ovarian = system: OVCAR-5 ovarian
SK-MEL-28 melanoma = system: SK-MEL-28 melanoma
KM12 colon = system: KM12 colon
KM20L2 colon = system: KM20L2 colon
DMS 273 small cell lung = system: DMS 273 small cell lung
MALME-3M melanoma = system: MALME-3M melanoma
UACC-257 melanoma = system: UACC-257 melanoma
LXFL 529 NSCLC = system: LXFL 529 NSCLC
ACHN renal = system: ACHN renal
NCI-H522 lung = system: NCI-H522 lung
CCRF-CEM leukemia = system: CCRF-CEM leukemia
HCT-116 colon = system: HCT-116 colon
SF-268 CNS = system: SF-268 CNS
IGROV1 ovarian = system: IGROV1 ovarian
SK-MEL-2 melanoma = system: SK-MEL-2 melanoma
CAKI-1 renal = system: CAKI-1 renal
NCI-H23 lung = system: NCI-H23 lung
A498 renal = system: A498 renal
SNB-19 CNS = system: SNB-19 CNS
SN12C renal = system: SN12C renal
OVCAR-4 ovarian = system: OVCAR-4 ovarian
SNB-75 CNS = system: SNB-75 CNS
RPMI-8226 leukemia = system: RPMI-8226 leukemia
SW-620 colon = system: SW-620 colon
SNB-78 CNS = system: SNB-78 CNS
NCI-H460 lung = system: NCI-H460 lung
UACC-62 melanoma = system: UACC-62 melanoma
HOP-18 NSCLC = system: HOP-18 NSCLC
RXF 393 renal = system: RXF 393 renal
HCT-15 colon = system: HCT-15 colon
786-0 renal = system: 786-0 renal
U251 CNS = system: U251 CNS
COLO 205 colon = system: COLO 205 colon
K-562 leukemia = system: K-562 leukemia

`O=c1c(O)c(O)c1=O.[NH2-].[NH2-].[NH2-].[NH2-].[NH2-].[Ru+5]` was tested, and the GI50 (DLD-1 colon) was greater than 100 µM, the TGI (DLD-1 colon) was greater than 100 µM and the GI50 (HT29 colon) was greater than 100 µM. For the same compound, the TGI (HT29 colon) was greater than 100 µM, the GI50 (TK-10 renal) was greater than 100 µM and the TGI (TK-10 renal) was greater than 100 µM. For the same compound, the GI50 (UO-31 renal) was greater than 100 µM, the TGI (UO-31 renal) was greater than 100 µM and the GI50 (HCC-2998 colon) was greater than 100 µM. For the same compound, the TGI (HCC-2998 colon) was greater than 100 µM, the GI50 (M14 melanoma) was greater than 100 µM and the TGI (M14 melanoma) was greater than 100 µM. It also gave a GI50 (SK-OV-3 ovarian) greater than 100 µM, a TGI (SK-OV-3 ovarian) greater than 100 µM and a GI50 (OVCAR-8 ovarian) greater than 100 µM. It also gave a TGI (OVCAR-8 ovarian) greater than 100 µM, a GI50 (EKVX NSCLC) greater than 100 µM and a TGI (EKVX NSCLC) greater than 100 µM. It also gave a GI50 (A549 NSCLC) greater than 100 µM, a TGI (A549 NSCLC) greater than 100 µM and a GI50 (HOP-92 NSCLC) greater than 100 µM. For the same compound, the TGI (HOP-92 NSCLC) was greater than 100 µM, the GI50 (NCI-H226 lung) was greater than 100 µM and the TGI (NCI-H226 lung) was greater than 100 µM. It also gave a GI50 (LOX IMVI melanoma) greater than 100 µM, a TGI (LOX IMVI melanoma) greater than 100 µM and a GI50 (OVCAR-5 ovarian) greater than 100 µM. It also gave a TGI (OVCAR-5 ovarian) greater than 100 µM, a GI50 (SK-MEL-28 melanoma) greater than 100 µM and a TGI (SK-MEL-28 melanoma) greater than 100 µM. The GI50 (KM12 colon) was greater than 100 µM, the TGI (KM12 colon) was greater than 100 µM and the GI50 (KM20L2 colon) was greater than 100 µM. For the same compound, the TGI (KM20L2 colon) was greater than 100 µM, the GI50 (DMS 273 small cell lung) was greater than 100 µM and the TGI (DMS 273 small cell lung) was greater than 100 µM. For the same compound, the GI50 (MALME-3M melanoma) was greater than 100 µM, the TGI (MALME-3M melanoma) was greater than 100 µM and the GI50 (UACC-257 melanoma) was greater than 100 µM. It also gave a TGI (UACC-257 melanoma) greater than 100 µM, a GI50 (LXFL 529 NSCLC) greater than 100 µM and a TGI (LXFL 529 NSCLC) greater than 100 µM. The GI50 (ACHN renal) was greater than 100 µM, the TGI (ACHN renal) was greater than 100 µM and the GI50 (NCI-H522 lung) was greater than 100 µM. For the same compound, the TGI (NCI-H522 lung) was greater than 100 µM, the GI50 (CCRF-CEM leukemia) was greater than 100 µM and the TGI (CCRF-CEM leukemia) was greater than 100 µM. The GI50 (HCT-116 colon) was greater than 100 µM, the TGI (HCT-116 colon) was greater than 100 µM and the GI50 (SF-268 CNS) was greater than 100 µM. The TGI (SF-268 CNS) was greater than 100 µM, the GI50 (IGROV1 ovarian) was greater than 100 µM and the TGI (IGROV1 ovarian) was greater than 100 µM. The GI50 (SK-MEL-2 melanoma) was greater than 100 µM, the TGI (SK-MEL-2 melanoma) was greater than 100 µM and the GI50 (CAKI-1 renal) was greater than 100 µM. For the same compound, the TGI (CAKI-1 renal) was greater than 100 µM, the GI50 (NCI-H23 lung) was greater than 100 µM and the TGI (NCI-H23 lung) was greater than 100 µM. For the same compound, the GI50 (A498 renal) was greater than 100 µM, the TGI (A498 renal) was greater than 100 µM and the GI50 (SNB-19 CNS) was greater than 100 µM. It also gave a TGI (SNB-19 CNS) greater than 100 µM, a GI50 (SN12C renal) greater than 100 µM and a TGI (SN12C renal) greater than 100 µM. It also gave a GI50 (OVCAR-4 ovarian) greater than 100 µM, a TGI (OVCAR-4 ovarian) greater than 100 µM and a GI50 (SNB-75 CNS) greater than 100 µM. The TGI (SNB-75 CNS) was greater than 100 µM, the GI50 (RPMI-8226 leukemia) was greater than 100 µM and the TGI (RPMI-8226 leukemia) was greater than 100 µM. For the same compound, the GI50 (SW-620 colon) was greater than 100 µM, the TGI (SW-620 colon) was greater than 100 µM and the GI50 (SNB-78 CNS) was greater than 100 µM. The TGI (SNB-78 CNS) was greater than 100 µM, the GI50 (NCI-H460 lung) was greater than 100 µM and the TGI (NCI-H460 lung) was greater than 100 µM. For the same compound, the GI50 (UACC-62 melanoma) was greater than 100 µM, the TGI (UACC-62 melanoma) was greater than 100 µM and the GI50 (HOP-18 NSCLC) was greater than 100 µM. It also gave a TGI (HOP-18 NSCLC) greater than 100 µM, a GI50 (RXF 393 renal) greater than 100 µM and a TGI (RXF 393 renal) greater than 100 µM. For the same compound, the GI50 (HCT-15 colon) was greater than 100 µM, the TGI (HCT-15 colon) was greater than 100 µM and the GI50 (786-0 renal) was greater than 100 µM. For the same compound, the TGI (786-0 renal) was greater than 100 µM, the GI50 (U251 CNS) was greater than 100 µM and the TGI (U251 CNS) was greater than 100 µM. The GI50 (COLO 205 colon) was greater than 100 µM, the TGI (COLO 205 colon) was greater than 100 µM and the GI50 (K-562 leukemia) was greater than 100 µM. The TGI (K-562 leukemia) was greater than 100 µM.
